# Measured values from paper PMC6718453 (Frontiers in Aging Neuroscience, 2019).
# Target: acetylcholinesterase (AChE)
structure (smiles),measurement,value
O=C(/C=C/C=C/c1ccc2c(c1)OCO2)N1CCCCC1 [piperine],IC50 ± SEM,76.6 ± 0.08 µg/mL
